By Ki is commonly meant the dissociation constant of the complex between target and ligand, obtained from inhibition or displacement.

The structures appear in SMILES notation. Changes are numbered by the printed parent chain.

The target of one test is T1, High affinity choline transporter 1 (Rattus norvegicus, UniProt Q9JMD7).
T1 sequence (Q9JMD7 whole entry): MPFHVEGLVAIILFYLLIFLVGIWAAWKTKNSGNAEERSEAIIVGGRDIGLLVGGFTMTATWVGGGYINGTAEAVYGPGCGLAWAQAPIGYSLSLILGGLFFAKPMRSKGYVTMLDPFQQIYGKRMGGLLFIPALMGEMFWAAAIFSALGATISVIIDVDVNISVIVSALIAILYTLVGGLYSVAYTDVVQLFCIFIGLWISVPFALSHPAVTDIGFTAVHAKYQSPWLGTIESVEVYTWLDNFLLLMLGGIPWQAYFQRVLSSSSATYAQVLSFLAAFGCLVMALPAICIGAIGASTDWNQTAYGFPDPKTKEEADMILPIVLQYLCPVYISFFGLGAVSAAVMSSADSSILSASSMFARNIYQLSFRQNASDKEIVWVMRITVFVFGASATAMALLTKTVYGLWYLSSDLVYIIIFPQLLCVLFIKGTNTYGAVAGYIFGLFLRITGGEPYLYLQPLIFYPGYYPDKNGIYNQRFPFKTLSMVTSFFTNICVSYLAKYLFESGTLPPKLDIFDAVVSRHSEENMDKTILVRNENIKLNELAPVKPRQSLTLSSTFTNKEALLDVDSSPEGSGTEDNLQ
Kind of test: Binding affinity to rat choline transporter 1.
As to `C[N+]1(C)CCO[C@@](O)(c2ccc(-c3ccc([C@@]4(O)C[N+](C)(C)CCO4)cc3)cc2)C1` [HEMICHOLINIUM DIBROMIDE], the Ki was found to be 0.01 µM.

In another test the target is T2, High affinity choline transporter 1 (Mus musculus, UniProt Q8BGY9).
T2 sequence (Q8BGY9 whole entry): T1 sequence (Q9JMD7 whole entry) with P2S, A35P, F307Y, F386L, P467S, I513V, S519A
Kind of test: Inhibition of [3H]choline uptake at choline transporter 1 in mouse brain synaptosome. The test is classed as tissue-based.
As for `CNCCO`, the Ki is 3800 µM. `C[N+](C)(C)c1ccccc1` showed a Ki of 75.2 µM. `C[N+](C)(C)CCCO`: the Ki is 2.2 µM. Still for that read-out and setting: the value for `C[N+](C)(C)CCCCO` was 310 µM; that for `CN(C)CCCO` was 290 µM; that for `CC(=O)OCCC[N+](C)(C)C` was 190 µM. Still for that read-out and setting: the value for `COC(=O)CC[N+](C)(C)C` was 270 µM; that for `CCOC(=O)CC[N+](C)(C)C` was 340 µM; that for `COc1cc(C#CCC[N+](C)(C)C)cc(OC)c1OC` was 2 µM. Take `COc1cc(C#CCC[N+]23CCC(CC2)C3)cc(OC)c1OC`: the affinity, expressed as Ki, was 0.05 µM.

With `COc1cc(C#CCC[N+]23CCC(CC2)CC3)cc(OC)c1OC`, the Ki is 0.09 µM.

`CC[N+]1(CCC#Cc2cc(OC)c(OC)c(OC)c2)CCCCC1`: the affinity, expressed as Ki, was 0.18 µM.

The molecule `CC[N+]1(CCC#Cc2cc(OC)c(OC)c(OC)c2)CCCC1` showed a Ki of 0.2 µM.

`CCCCCCCC[N+]1(CCC#Cc2cc(OC)c(OC)c(OC)c2)CCCCC1` gave an inhibition constant Ki of 0.23 µM.

In turn, `Cc1cc(C)nc(C)c1` had a Ki of 107 µM. `C[N+]12CCC(CC1)C(=O)C2` gave a Ki of 0.521 µM. On to `C[N+]12CCC(CC1)CC2`, for which the Ki was 4.7 µM. For the molecule `C1CN2CCC1CC2`, the Ki was 40.1 µM.

For the molecule `C[N+]12CCC(O)(CC1)CC2`, the inhibition constant (Ki) is 72.1 µM.

On to `CC1C(O)C2CC[N+]1(C)CC2` (configuration not stated), for which the inhibition constant (Ki) is 210 µM.

Take `C[n+]1cccc(C(N)=O)c1`: the Ki was 361 µM.

As to `CC[N+](CC)(CC)CCC#Cc1cc(OC)c(OC)c(OC)c1`, affinity was put at a Ki of 0.701 µM. Molecule `CCCCC[N+]1(CCC#Cc2cc(OC)c(OC)c(OC)c2)CCCCC1` had a Ki of 0.02 µM. With `OCC[N+]12CCC(CC1)CC2`, the affinity, expressed as Ki, was 0.64 µM. Still for that read-out and setting: the value for `CCCCCCCCCCCCCCCC[n+]1ccccc1` was 32.1 µM. The same measure, in the same setting: the value for `Nc1ccncc1N` [AMIFAMPRIDINE] was 820 µM. On the same count and under the same terms, the value for `C[N+](C)(C)CCO.[Cl-]` [CHOLINE CHLORIDE] was 0.681 µM. In the case of `Nc1ccncc1` [DALFAMPRIDINE], the Ki is 481 µM.

The molecule `CNC` [DIMETHYLAMINE] gave a Ki of 9420 µM.

For `CN(C)CCO` [DIMETHYLAMINOETHANOL], the affinity corresponds to a Ki of 55.7 µM. `CN` [METHYLAMINE]: the Ki was 35100 µM.

For the molecule `CN1CCC[C@H]1c1cccnc1` [NICOTINE], the Ki was 520 µM. Same read-out and setting: the value for `CCCC[N+](CCCC)(CCCC)CCCC` [TETRABUTYLAMMONIUM] was 1050 µM; that for `C[N+](C)(C)C` [TETRAMETHYLAMMONIUM] was 30.1 µM; that for `CC[N+](CC)(CC)CC` [TETRYLAMMONIUM] was 260 µM. With `CN(C)C` [TRIMETHYLAMMONIUM], the affinity, expressed as Ki, was 340 µM.

(Values after ChEMBL document CHEMBL1208774, “3-D-QSAR and docking studies on the neuronal choline transporter” (Bioorg Med Chem Lett, 2010).)
